In ChEMBL document CHEMBL3045782, “SYNTHESIS OF THE RIGID ANALOGUES OF AN SSRI BENZENEPROPANAMINE” (Med Chem Res, 2004):
The source made the active and inactive calls. The rule behind the calls is not given here.

Tests used:
[1] = test system: Mus musculus; experiment: Antidepressant activity in Mus musculus albino (mouse) assessed as reversal of reserpine-induced ptosis, sedation and crouching at 75 umol/kg, ip; format: functional
[2] = test system: Mus musculus; experiment: Anorexigenic activity in Mus musculus albino (mouse) assessed as anorexia at 75 umol/kg, ip relative to fluoxetine; format: functional
[3] = test system: Mus musculus; experiment: Toxicity in Mus musculus albino (mouse) assessed as effect on gross behavior activity at 75 umol/kg, ip; format: organism-based; details: in vivo
[4] = test system: Mus musculus; experiment: Anorexigenic activity in Mus musculus albino (mouse) assessed as anorexia at 75 umol/kg, ip; format: functional

Structure (SMILES)	Activity [1]	Activity [2]	Activity [3]	Activity [4]
CN1CCC(Oc2ccc(C(F)(F)F)cc2)CC1	inactive	28.92%	Non-toxic	23.6%
COC(=O)c1ccccc1OCC(O)CN1CCC(Oc2ccc(C(F)(F)F)cc2)CC1 (stereo unspecified)	inactive	43.13%	Non-toxic	35.2%
CC(=O)c1ccc(OCC(O)CN2CCC(Oc3ccc(C(F)(F)F)cc3)CC2)cc1 (stereo unspecified)	inactive	96.07%	Non-toxic	78.4%
OC(COc1ccc(C(F)(F)F)cc1)CN1CCC(Oc2ccc(C(F)(F)F)cc2)CC1 (stereo unspecified)	inactive	77.94%	Non-toxic	63.6%
COc1cccc(OCC(O)CN2CCC(Oc3ccc(C(F)(F)F)cc3)CC2)c1 (stereo unspecified)	50%	63.23%	Non-toxic	51.6%
OC(COc1ccc(Br)cc1)CN1CCC(Oc2ccc(C(F)(F)F)cc2)CC1 (stereo unspecified)	inactive	95.09%	Non-toxic	77.6%
CN1CCC(O)(c2ccccc2)CC1	inactive	56.86%	Non-toxic	46.4%
COc1ccc(OCC(O)CN2CCC(Oc3ccc(C(F)(F)F)cc3)CC2)cc1 (stereo unspecified)	inactive	47.05%	Non-toxic	38.4%
CCC(=O)c1ccc(OCC(O)CN2CCC(Oc3ccc(C(F)(F)F)cc3)CC2)cc1 (stereo unspecified)	inactive	67.64%	Non-toxic	55.2%
OC(COc1ccccc1)CN1CCC(Oc2ccc(C(F)(F)F)cc2)CC1 (stereo unspecified)	inactive	82.84%	Non-toxic	67.6%
OC(COc1cccc(C(F)(F)F)c1)CN1CCC(Oc2ccc(C(F)(F)F)cc2)CC1 (stereo unspecified)	inactive	38.23%	Non-toxic	31.2%
CC(=O)Nc1ccc(OCC(O)CN2CCC(Oc3ccc(C(F)(F)F)cc3)CC2)cc1 (stereo unspecified)	inactive	61.67%	Non-toxic	50.4%
N#Cc1ccc(OCC(O)CN2CCC(Oc3ccc(C(F)(F)F)cc3)CC2)cc1 (stereo unspecified)	inactive	70.58%	Non-toxic	57.6%
OC(COc1ccc(Cl)cc1)CN1CCC(Oc2ccc(C(F)(F)F)cc2)CC1 (stereo unspecified)	75%	75.49%	Non-toxic	61.6%
COC(=O)c1ccc(OCC(O)CN2CCC(Oc3ccc(C(F)(F)F)cc3)CC2)cc1 (stereo unspecified)	inactive	32.84%	Non-toxic	26.8%
FC(F)(F)c1ccc(OC2CCNCC2)cc1	75%	81.86%	Non-toxic	66.8%
CNCCC(Oc1ccc(C(F)(F)F)cc1)c1ccccc1 (stereo unspecified) [FLUOXETINE]	100%			81.6%
